Reference: patent US20250339542A1, “CONVERSION OF A BIOLOGICALLY SILENT MIRNA BINDING SMALL MOLECULE TO AN MIRNA DEGRADER” (University of Florida Research Foundation, Incorporated, priority 2020, published 2025)
pIC50: −log10 of the molar value. “And” between values parts separate entries of the source, which are not always exact repeats. Identical values can stand only once. “Also recorded” adds a separate entry of the source.

Tests used:
[1] = target: pre-miR-155's 5′GAU/3′C_A bulge; assay: Microscale thermophoresis (MST) binding to pre-miR-155 A bulge; design: species or system human
Method: (§1) Microscale thermophoresis study of binding. Binding constants were measured by MST using premium capillaries (Nanotemper) using serial dilations of compound from 50 μM to 1 nM in 1:2 dilutions. RNA-Cy5-155-A (20 nM) or Cy5-155-AU (20 nM), Cy5-155-C(20 nM), and Cy5-155-GC (20 nM) were annealed in 2×DNA buffer by heating at 70° C. with cooling to room temperature on the bench. Then the 2× compound and 2× RNA solutions were mixed together in a 1:1 ratio and allowed to equilibrate at room temperature for 10 min. Then, the capillaries were loaded and run on a […] under previously described conditions.^14 MST power was set to 40% and the LED power was set to 3%.

[2] = test system: base paired control RNA; assay: MST binding to base paired control RNA (A bulge mutated to AU pair); conditions: microscale thermophoresis
Method: as §1

[3] = test system: pre-miR-155's C-bulge (5′UCG/3′A_U); assay: MST binding to pre-miR-155 C bulge; design: species or system human; conditions: microscale thermophoresis
Method: as §1

[4] = test system: GC paired control; assay: MST binding to GC paired control; conditions: microscale thermophoresis
Method: as §1

[5] = test system: pre-miR-155; assay: RT-qPCR of pre-miR-155 levels in MDA-MB-231 cells; type: cell-based, human; conditions: MDA-MB-231 cells
Method: (§2) Tissue Culture. MDA-MB-231 cells were obtained from ATCC (HTB-26) and cultured in RPMI medium with […] & 25 mM HEPES (Corning) supplemented with 10% FBS (sigma). MCF-10a cells were obtained from ATCC(CRL-10317) and cultured in DMEM/F12 50/50 with glutamine and 15 mM HEPES(Corning) containing 20% FBS(Sigma), 1×Antibiotic-Antimycotic(Corning), 20 ng/mL of human epidermal growth factor(Pepro Tech Inc.), 100 μg/mL of insulin and […] of hydrocortisone (Pfizer &Bauer). HUVECs were cultured in EGM (Lonza) made using the EGM-2 bullet kit (Lonza) per the manufacturers protocol.
(§3) RT-qPCR analysis for Mature, Primary and Precursor miRNAs and mRNA levels. After compound treatment for the indicated time (MDA-MB-231 48 h and HUVECs 24 h), total RNA was extracted using the Zymo Quick-RNA mini prep kit according to the manufacturers protocol. Reverse Transcription (RT) for microRNAs and pri- and pre-miR-155 were done on 200 ng of RNA using the miScript II RT kit (Qiagen) according to the manufacturer's protocol. The mRNAs were done using QScript (Quanta Bio) on 200 ng of total RNA according to the manufacturer's protocol. RT-qPCR was done as mentioned above. The obtained data was analyzed by using the ΔΔCt method as described previously. For the washout experiment, MDA-MB-231 cells were treated with 3 for 48 h. Then the media was changed with fresh growth medium without compound and the cells incubated for 12, 24 and 36 h with RNA harvested and pre-miR-155 levels analyzed as described above.
(§4) RT-qPCR analysis for Mature, Primary and Precursor miRNAs and mRNA levels part. Relative RNA expression was determined by using ΔΔCt method with 18S rRNA as an internal control. Normalized fold change was calculated with the equation as below: […]

[6] = test system: miR-155; assay: RT-qPCR of mature miR-155 levels in MDA-MB-231 cells; type: cell-based, human; conditions: 48 h
Method: as §2, §3, §4

[7] = test system: pre-miR-155; assay: Chem-CLIP and competitive Chem-CLIP of pre-miR-155 in MDA-MB-231 cells; type: cell-based, human; conditions: for enrichment of pre-miR-155 in pulled down fractions (Chem-CLIP): 1×10^−7 M (100 nM)
Method: Cellular Chem-CLIP and Competitive-Chem-CLIP of pre-miR-155. MDA-MB-231 cells at 80% confluency in 100 mm dish were treated with Chem-CLIP probe at the indicated concentration overnight. Then cells were washed with DPBS and harvested by scrapping. Total RNA was extracted by using the miRNeasy mini kit (Qiagen) according to the manufacture's protocol. Then, 50 g of total RNA was treated to 150 L of Dynabeads MyOne Streptavidin C1 (Invitrogen) slurry in 500 L of 1×DNA buffer (8.0 mM Na2PO4, 185 mM NaCl, pH=7.0) and shaked for 6 h. The beads then captured on a Magnetic rack and washed with DPBS for 4 times. The bound RNA was then cleaved from beads in 150 μL of 95% formamide with 10 mM EDTA at 95° C. for 30 min. Released RNA was then cleaned up by Zymo Quick-RNA MiniPrep kit per the manufacture's protocol. RT-qPCR was carried out on pre-miR-155 as previously described above by using 10 ng of input cDNA from before and after pulldown RNA samples. Enrichment of pre-miR-155 was calculated as previously reported^15. Competitive Chem-CLIP was completed by pre-treating MDA-MB-231 cells with compound B for 2 h followed by dosing of Chem-CLIP at 100 nM overnight. Sample preparation and data analysis were performed as for Chem-CLIP.

[8] = test system: pre-miR-155; assay: RT-qPCR of pre-miR-155 levels in HUVECs; type: cell-based, human
Method: as §2, §3

[9] = test system: miR-155; assay: RT-qPCR of miR-155 levels in HUVECs; type: cell-based, human
Method: as §2, §3

[10] = test system: pre-miR-155; assay: In vitro RNase L cleavage assay of pre-miR-155; type: biochemical, human
Method: pre-miR-155 was then incubated with compound 3 in vitro in an RNase L cleavage assay.
PCR amplification and transcription of DNA templates. PCR amplification of DNA templates of pre-miR-155 and mutants were performed using the pre-miR-155 forward primer containing T7 RNA polymerase promoter and a reverse primer common to both the pre-miR-155 Wild type and Mutant templates. The sequence of Oligonucleotides used in this study can be found in Table 4. PCR amplification was carried out in 350 μL of 1× PCR buffer (10 mM Tris-HCl, pH 9.0, 50 mM KCl, and 0.1% (v/v) Triton X-100), 0.33 mM dNTPs, 4.25 mM MgCl2, 2 μM of each primer(100 μM), and 1.7 μL of Taq DNA polymerase. Thermocycling was done for 35 cycles at 95° C. for 30 s, 55° C. for 30 s, and 72° C. for 60 s. PCR products were confirmed by a 2.5% Agarose Gel stained with ethidium bromide before in vitro transcription. In vitro RNA transcription for the target RNAs were carried out using house made reagents as described previously.^11

[11] = test system: 3×3 ILL; assay: 2DCS with HiT-StARTS fitness ranking of bound RNA motifs; type: binding
Method: 2DCS: Primary Screening. The microarrays were constructed as previously described.^10 Microarrays were by coating glass plates with 25 mL of molten 1% agarose and allowing it to set for 2 h. After setting, the plates were pinned with compound using a Biomek® NX robotic pintool, pinning 100 nL of each compound. The array was dried in a fume hood overnight and then washed in 1× FB supplemented with 0.1% (v/v) Tween-20 and then Nano pure water two times each followed by air drying on the bench top. Once dried, 200 pmol of radiolabeled 3×3 ILL was added to 0.5 mL of 1× FB and folded by heating to 95° C. for 1 min and then cooling to room temperature slowly on the benchtop. Magnesium chloride was added after cooling. Once cooled the solution was brought to a volume of 2.5 mL with 1× FB. The microarrays were pre-hybridized with 1× HB for 5 min and the excess buffer was removed by touching the edge with a Kimwipe. The arrays were then Hybridized with the RNA for 30 min, spreading the solution evenly over the surface with parafilm. After hybridization, the array was washed four times with 1× HB followed by air drying and imaging by autoradiography. Hits were identified as signals with an intensity greater than 3-fold over background radiation on the array. Positive control compounds Mitoxantrone was present on all arrays.
2DCS: tRNA Counter Screen. To remove non-specific RNA binders hits identified above were subjected to competitive screening with cold yeast tRNA. The assay was carried out as previously described.^10 Briefly, arrays were constructed on Inkjet Superfrost microscope slides (Fisher) by applying 2 mL of molten 1% agarose onto each slide and curing them for 2 h. Once cured, 200 nL of each compound was spotted onto each plate and the plates dried overnight as previously described. After drying, the slides were washed three times for 5 min each with nano pure water and dried under a stream of compressed air. The slides were then pre-hybridized with 1× HB for 5 min, and then incubated with 100 pmol of folded hot RNA and tRNA (1× relative to the total moles of compound spotted) in 0.4 mL of 1× FB for 30 min. The slides were then washed with 1× HB five times, air dried, and imaged to identify library specific binders. […]
In these equations n1 is the observed reads for all selected RNAs in the RNA-seq data; n2 is the total reads observed for the starting library; p1 is the proportion of the reads for a particular sequence to the total reads in the selected library; p2 is the proportion of the reads for a particular sequence to the total reads of the starting library. We can then use Zobs to rank each sequence, and therefore each RNA motif, by its affinity or fitness which is calculated according to equation (5) below described previously:^10 […]

CCCCCCCCCCCc1c(CCCCCCCCCCC)[n+](-c2c(C(C)C)cccc2C(C)C)cn1-c1c(C(C)C)cccc1C(C)C [Compound 1]
Kd [1]: 490 ± 122 nM | binding to base paired control RNA [2]: no binding; also recorded: Neither molecule showed significant binding | binding to C bulge [3]: Neither compound (1 or 2) had any affinity; also recorded: Neither molecule showed significant binding | binding to GC paired control [4]: Neither compound (1 or 2) had any affinity | concentration of 1 giving complete ablation of cleavage by 3 ([5]; co-treated with 3 at 1×10^−7 M, mature, pre- and pri-miR-155): 1000 nM | effect on miR-155 levels / miR-155 biogenesis [6]: no effect; also recorded: unable to inhibit | pIC50 ([7]; Homo sapiens, 6 held constant at 1×10^−7 M, read-out: IC50 of reduction of pre-miR-155 enrichment (C-Chem-CLIP)): 7.00 | effect on pre-miR-155 levels [8]: no effect | competition of cleavage by 3 ([8]; 3 at 1×10^−8 M, 1 at 1×10^−7 and 1×10^−6 M): dose dependently reduced cleavage | effect on miR-155 levels [9]: no effect

CCCNC(=O)CCc1c(C)n(-c2c(C(C)C)cccc2C(C)C)c[n+]1-c1c(C(C)C)cccc1C(C)C [Compound 2]
Kd [1]: 552 ± 120 nM | binding to base paired control RNA [2]: no affinity; also recorded: ablated binding; also recorded: Neither molecule showed significant binding | binding to C bulge [3]: Neither compound (1 or 2) had any affinity; also recorded: Neither molecule showed significant binding | binding to GC paired control [4]: Neither compound (1 or 2) had any affinity | effect on pre-miR-155 levels [5]: no effect | effect on miR-155 levels / miR-155 biogenesis [6]: no effect

CCOC(=O)C1=C(Nc2ccccc2)S/C(=C\c2ccc(OCCOCCOCCOCCNC(C)=O)c(O)c2)C1=O [Compound 4]
cleavage of pre-miR-155 [10]: no significant cleavage; also recorded: unable to cleave | effect on miR-155 levels / miR-155 biogenesis [6]: no effect; also recorded: does not affect

Cc1c(CCC(=O)NCCCC[C@H](NC(=O)CCCc2ccc(N(CCCl)CCCl)cc2)C(=O)NCCNC(=O)CCCCC2SCC3NC(=O)NC32)[n+](-c2c(C(C)C)cccc2C(C)C)cn1-c1c(C(C)C)cccc1C(C)C (stereo partly drawn) [Compound 6]
enrichment of pre-miR-155 in pulled down fractions (Chem-CLIP) [7]: 4 fold and 7 fold

CC(=O)NCCCC[C@H](NC(=O)CCCc1ccc(N(CCCl)CCCl)cc1)C(=O)NCCNC(=O)CCCCC1SCC2NC(=O)NC21 (stereo partly drawn) [Compound 7]
enrichment of pre-miR-155 in pulled down fractions (Chem-CLIP) [7]: no enrichment; also recorded: unable to pull down

CCCCCCCCCCCc1c(CCCCCCCCCCC)[n+](C)c(CCCO)n1C [Compound C7]
Fitness Score of the next motif [11]: 46% | fitness score of highest affinity interaction, alternating (AU)(UA) pairs [11]: 100%

Cc1cc(C)c(-n2c[n+](-c3c(C)cc(C)cc3C)c3c2C[C@@]2(C)[C@@H](CC[C@@H]4[C@@H]2CC[C@]2(C)[C@@H]([C@H](C)CCCC(C)C)CC[C@@H]42)C3)c(C)c1 [Compound C11]
Fitness Score of the next motif [11]: 56% | fitness score of highest affinity interaction, alternating (AU)(UA) pairs [11]: 100%
